Consider 60 molecules from the METLIN SMRT retention time set (Domingo-Almenara et al. 2019).

The nature of this series: gradient 5% acetonitrile 3 min, to 50% in 2 min, to 85% in 15 min, held 3 min, 100 µL/min. To be noted: column: Zorbax Extend-C18 2.1 x 50 mm; eluents: water / acetonitrile, 0.1% formic acid. The method, boiled down:
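In both positive and negative ionization mode, a quadrupole time-of-flight mass spectrometer coupled to HPLC analyzed pure standards run in mixtures of ~100 molecules. The Zorbax Extend-C18 column (2.1 × 50 mm, 1.8 μm) was operated at 100 μL/min with water and acetonitrile, each containing 0.1% formic acid. The dead volume was 40 μL and the dwell volume 900 μL. Retention time came from adduct peaks that were computationally picked and individually inspected by hand.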
The molecule `COCC(C)(O)CNC(=O)NC1CCCCC1` (stereo not given) returned an RP-LC retention time of 596 s.

For the molecule `COc1ccc(CC(=O)N2CCN(c3cc(C)n4cnnc4n3)CC2)cc1OC`, the RP-LC retention time came to 578 s.

In turn, `O=C(Nc1nnc(-c2ccsc2)o1)c1ccno1` showed an RP-LC retention time of 617 s.

With `CCc1cc(=O)n(CC(=O)Nc2ccccc2C)c(N2CCOCC2)n1`, the RP-LC retention time turned out to be 658 s.

For `COc1ccc(CCNC(=O)Cc2csc3nc(-c4ccc(OC)c(OC)c4)cn23)cc1OC`, the RP-LC retention time is 661 s.

Turning to `Cc1ccsc1C(=O)N1CCC2(CC1)CC(N(C(=O)NC(C)C)C1CC1)CCO2` (stereo not given), the RP-LC retention time is 798 s.

`O=C(NCC1CCOCC1)Nc1ccccc1Cl` had an RP-LC retention time of 741 s.

`Cc1ccc(Nc2c(-c3ccc(N(C)C)cc3)nc3cnccn23)cc1` had an RP-LC retention time of 855 s.

The molecule `Cc1cccc(OCc2nnc(SCC(=O)Nc3nc(-c4ccccc4)cs3)o2)c1` gave an RP-LC retention time of 1070 s.

`COc1ccccc1NC(=O)N1CCc2cn(C)c3cccc(c23)C1` gave an RP-LC retention time of 944 s.

On to `O=S(=O)(c1cc(-c2nnc(C3CC3)o2)co1)N1CCC(Cc2ccccc2)CC1`, for which the RP-LC retention time was 1080 s.

In the case of `COc1ccc(-c2nsc(SCC(=O)Nc3ccc4c(c3)OCCO4)n2)cc1`, the RP-LC retention time was 906 s.

The molecule `Cc1ccccc1CNC(=O)c1cn2ccncc2n1` had an RP-LC retention time of 692 s.

Molecule `CCn1c(=O)c(C)nc2cc(-c3noc(Cc4ccc(OC)c(OC)c4)n3)ccc21` gave an RP-LC retention time of 888 s.

In turn, `CCN(C(=O)c1cc2c(=O)oc3ccccc3c2n1C)c1ccccc1` gave an RP-LC retention time of 919 s.

In the case of `Cc1sc2ccn(Cc3ccc(F)cc3)c(=O)c2c1C(=O)NCCN1CCN(C)CC1`, the RP-LC retention time worked out at 591 s.

Turning to `CN(C)c1ccc(CNC(=O)c2nnc(-c3ccc(S(=O)(=O)N4CCOCC4)cc3)o2)cc1`, the RP-LC retention time is 648 s.

`CCOC(=O)c1cccc(NC(=O)C2CCCN(c3nc4ccccc4nc3C(F)(F)F)C2)c1` (stereo not given) had an RP-LC retention time of 1280 s.

For `O=C(Cn1cc(-c2ccccc2)c2ncnc(N3CCOCC3)c21)N1CCCCC1`, the RP-LC retention time was 700 s.

Molecule `c1cc2c(cc1-c1noc(-c3ccc4c(c3)OCO4)n1)ncn2CCN1CCCC1` gave an RP-LC retention time of 634 s.

With `COc1ccc(-c2nnc(-c3cc(S(=O)(=O)Nc4cccnc4)ccc3Cl)o2)cc1`, the RP-LC retention time came to 803 s.

`CCc1nc(-c2csc(S(=O)(=O)N3CCCC(C(=O)Nc4ccc(Cl)cc4F)C3)c2)no1` (stereo not given) yielded an RP-LC retention time of 1150 s.

On to `O=C1NCCC1Cc1ccc(C(F)(F)F)cc1` (stereo not given), for which the RP-LC retention time was 710 s.

Molecule `COC(=O)C1=CN(C2CC2)c2cc(N3CCN(C(C)C)CC3)c(F)cc2S1(=O)=O` displayed an RP-LC retention time of 740 s.

On to `CCC(=O)N1CCCN(C2=NS(=O)(=O)C(c3ccc(Cl)cc3)=C2C)CC1`, for which the RP-LC retention time was determined as 661 s.

`Cc1nc2cc(-c3noc(-c4cc(F)ccc4F)n3)ccc2o1` returned an RP-LC retention time of 1070 s.

Turning to `CCc1noc(NC(C)=O)c1-c1ccc(C)c(S(=O)(=O)N2CCN(c3ccccc3)CC2)c1`, the RP-LC retention time was 964 s.

The molecule `COc1ccc(Cl)cc1NC(=O)NC1CCCCC1N1C(=O)CSC1=O` (stereo not given) returned an RP-LC retention time of 870 s.

Molecule `CN(C)CC1(O)CCC2(CCN(Cc3ccc(Cl)c(F)c3)CC2)CC1` showed an RP-LC retention time of 658 s.

For the molecule `CNC(=O)c1cc(-c2ccccc2)n(C)c1C`, the RP-LC retention time was determined as 591 s.

As to `CCc1nnc(-c2ccc3ccn(CC(=O)Nc4cccc(OC)c4)c3c2)o1`, the RP-LC retention time was found to be 839 s.

`CC(CNC(=O)c1nc(N2CCOCC2)c2ccccc2n1)c1ccccc1` (stereo not given) displayed an RP-LC retention time of 726 s.

For `CC(Cc1ccco1)NC(=O)CC1CCN(C(=O)c2ccc3nc(-c4ccccc4)oc3c2)CC1` (stereo not given), the RP-LC retention time amounted to 830 s.

For the molecule `CCNC(=O)N1CC(n2cc(C(=O)NCCCOC)nn2)C1`, the RP-LC retention time was determined as 580 s.

`O=C(Cn1nc2c3ccc(Cl)cc3ncn2c1=O)NCc1ccccc1`: the RP-LC retention time was 716 s.

Consider `Cc1cc(-n2nnc(C(=O)N3CCC4(CC3)OCCO4)c2-c2ccncc2)ccc1F`, for which the RP-LC retention time was found to be 715 s.

In the case of `COc1ccc(N2C=C(C(=O)N3CCOCC3)S(=O)(=O)c3ccccc32)cc1OC`, the RP-LC retention time was determined as 695 s.

The molecule `COc1ccc(-c2noc(CN3N=NC4C(=O)N(c5ccc6c(c5)CCC6)C(=O)C43)n2)c(OC)c1` (stereo not given) gave an RP-LC retention time of 959 s.

`CC(C)Cn1c(=O)c(N2CCC(NC(=O)NCc3ccccc3)CC2)nc2ccccc21` had an RP-LC retention time of 980 s.

As for `O=C(NCCc1ccncc1)c1cnn(-c2ccccc2)n1`, the RP-LC retention time is 560 s.

For `CCN1CCN(c2ncnc3sc(C(=O)NCCCOC)c(C)c23)CC1`, the RP-LC retention time amounted to 563 s.

In turn, `CCc1cc(C(=O)Nc2cccc(C)c2C)nc2ccnn12` yielded an RP-LC retention time of 1150 s.

`C=CCN1C(=O)COc2ccc(-c3csc(NC(=O)c4cccc(Cl)c4)n3)cc21` returned an RP-LC retention time of 1070 s.

`Fc1ccc(CN2CCc3nc(N4CCN(c5ccccc5F)CC4)ncc3C2)c(F)c1` gave an RP-LC retention time of 795 s.

Take `CCCCc1ccc(NC(=O)Cn2cnc3nc(N4CCCC(C(=O)NCC)C4)sc3c2=O)cc1` (stereo not given): the RP-LC retention time was 801 s.

As for `CC1CCN(C(=O)C2CCN(c3ccc4nnc(-c5ccccc5)n4n3)CC2)CC1`, the RP-LC retention time was found to be 902 s.

Molecule `O=C(Cc1cccs1)N1CCN(Cc2nc(-c3ccc(Cl)cc3)cs2)CC1` returned an RP-LC retention time of 754 s.

On to `CCCCN(C)c1nc(-c2ccc([N+](=O)[O-])cc2)nc2ccccc12`, for which the RP-LC retention time worked out at 883 s.

Take `Cc1nc(N2CCOCC2)c2c(C(=O)Nc3ccc(Br)cc3F)c(C)oc2n1`: the RP-LC retention time was determined as 976 s.

As for `O=C(CNC(=O)c1cccc(Br)c1)NCc1cscn1`, the RP-LC retention time amounted to 652 s.

The molecule `CC(=O)N1c2ccc(S(=O)(=O)N3CCCCCC3)cc2CC1C(=O)NCc1ccc(Cl)cc1` (stereo not given) yielded an RP-LC retention time of 951 s.

With `CC(C)(C)c1ccc(OCCCC(=O)Nc2nc(-c3ccccc3)cs2)cc1`, the RP-LC retention time was 1300 s.

On to `CCCCNC(=O)CCc1[nH]c(C)c(C(=O)OCC)c1C`, for which the RP-LC retention time turned out to be 762 s.

Consider `Cc1cc(=O)n(CC(=O)Nc2ccccc2C#N)cn1`, for which the RP-LC retention time stood at 571 s.

Turning to `CCCCNC(=O)CCC(=O)N1CC2CCCN2c2ccccc21` (stereo not given), the RP-LC retention time came out at 837 s.

Consider `OCCn1cc(-c2ccc3c(c2)CC/C3=N\O)c(-c2ccncc2)n1`, for which the RP-LC retention time amounted to 603 s.

As to `Cc1nc(N2CCOCC2)c2c(C(=O)Nc3ccccc3F)c(C)oc2n1`, the RP-LC retention time was 805 s.

With `CC(C)NC(=O)CN1C(=O)COc2ccc(C(=O)NC3CCCC3)cc21`, the RP-LC retention time amounted to 712 s.

In turn, `CC(C)n1cc(S(=O)(=O)Nc2cc(F)ccc2Cl)c2cccnc21` registered an RP-LC retention time of 989 s.

As to `CC(C)N1CCN(Cc2nc(-c3ccc(N(C)Cc4ccccc4)nc3)no2)CC1`, the RP-LC retention time came out at 661 s.
